The results in this text go back to PubChem BioAssay (NCI).

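Growth conditions: 96-well plates. Treatment: test compound, 48 hours, 5 concentrations. Analysis: linear interpolation between bracketing concentrations; unreached endpoints set to highest concentration. Abbreviation: GI50, concentration required for 50% inhibition of growth. TGI marks complete inhibition of growth.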

Test systems include 786-0 renal; COLO 205 colon; DU-145 prostate; HS 578T breast; M14 melanoma; OVCAR-8 ovarian; RXF 393 renal; SK-MEL-2 melanoma; SN12C renal; UACC-257 melanoma.
Holding throughout (test): NCI-60 cell line screen, 48 h

On to `C=CC1CC12C(=O)C1OC2(C)C2C(=O)c3ccccc3C(=O)C12` (stereo not given), for which the GI50 in the assay on 786-0 renal is > 52.5 µM; with COLO 205 colon it was > 100 µM; in the assay on DU-145 prostate it was 72.7 µM; with HS 578T breast, > 57.4 µM; in the assay on M14 melanoma it was > 100 µM; in the assay with OVCAR-8 ovarian, > 42.8 µM. Besides, the GI50 in the assay on RXF 393 renal is 35.2 µM; with SK-MEL-2 melanoma it was > 86 µM; with SN12C renal it was > 56.3 µM; in the assay on UACC-257 melanoma it was > 45.9 µM. The TGI was > 100 µM with 786-0 renal; > 100 µM with COLO 205 colon; > 100 µM in the assay with DU-145 prostate; 98.2 µM in the assay with HS 578T breast; > 100 µM with M14 melanoma; > 85.8 µM with OVCAR-8 ovarian. Also, the TGI in the assay on RXF 393 renal is > 100 µM; in the assay on SK-MEL-2 melanoma, > 100 µM; with SN12C renal it was > 100 µM; with UACC-257 melanoma it was > 81.7 µM.
`Brc1c[n+](Cc2ccc3ccccc3c2)cn1Cc1ccc2ccccc2c1`: the GI50 is 1.75 µM in the assay on 786-0 renal; 1.31 µM with COLO 205 colon; 2.54 µM in the assay on DU-145 prostate; 1.92 µM with HS 578T breast; 1.4 µM with M14 melanoma; 1.89 µM with OVCAR-8 ovarian. Further, the GI50 was 2.51 µM in the assay with RXF 393 renal, 1.81 µM with SK-MEL-2 melanoma, 1.52 µM with SN12C renal and 1.76 µM in the assay with UACC-257 melanoma. The TGI with 786-0 renal amounted to 3.33 µM; in the assay on COLO 205 colon, 3.16 µM; in the assay with DU-145 prostate, 7.75 µM; in the assay on HS 578T breast, 4.84 µM; in the assay on M14 melanoma, 2.92 µM; with OVCAR-8 ovarian it was 4.55 µM. The TGI in the assay on RXF 393 renal turned out to be 6.75 µM; with SK-MEL-2 melanoma it was 3.9 µM; in the assay with SN12C renal, 2.94 µM; in the assay on UACC-257 melanoma, 4.12 µM.
`CN(C(=O)c1ccc(F)cc1C(F)(F)F)C1CCN(c2nnc(-c3ccnn3C)c3ccccc23)CC1`: the GI50 in the assay with 786-0 renal was > 100 µM; with COLO 205 colon it was 32.9 µM; in the assay with DU-145 prostate it was 75.4 µM; in the assay on HS 578T breast it was 50.8 µM; with M14 melanoma it was 46.7 µM; in the assay with OVCAR-8 ovarian it was 30.5 µM. Further, the GI50 is 17.4 µM in the assay on RXF 393 renal, 29.9 µM in the assay on SK-MEL-2 melanoma, 51 µM in the assay on SN12C renal and 23.2 µM in the assay with UACC-257 melanoma. In addition, the TGI with 786-0 renal, in the assay on COLO 205 colon, in the assay with DU-145 prostate, in the assay on HS 578T breast, in the assay on M14 melanoma and in the assay with OVCAR-8 ovarian was > 100 µM throughout. The TGI with RXF 393 renal is > 84.3 µM; with SK-MEL-2 melanoma it was > 100 µM; in the assay with SN12C renal, > 100 µM; with UACC-257 melanoma it was > 100 µM.
In the case of `O=C1Nc2ccc(Cl)cc2/C1=C\c1c(-c2ccc(F)cc2)nc2ccccn12`, the GI50 in the assay on 786-0 renal was 2.18 µM; with COLO 205 colon, 4.03 µM; in the assay on DU-145 prostate, 2.67 µM; in the assay with HS 578T breast it was 2.2 µM; in the assay on M14 melanoma it was 3.02 µM; in the assay on OVCAR-8 ovarian it was 2.28 µM. Also, the GI50 was 1.87 µM in the assay on RXF 393 renal, 2.66 µM in the assay with SK-MEL-2 melanoma, 2.88 µM in the assay with SN12C renal and 3.11 µM with UACC-257 melanoma. Also, the TGI stood at 5.2 µM in the assay with 786-0 renal; 13.6 µM in the assay with COLO 205 colon; 7.15 µM in the assay on DU-145 prostate; 8.37 µM with HS 578T breast; 8.62 µM in the assay on M14 melanoma; 5.99 µM in the assay with OVCAR-8 ovarian. Besides, the TGI with RXF 393 renal was 4.2 µM; in the assay on SK-MEL-2 melanoma, 6.17 µM; in the assay on SN12C renal, 10.8 µM; in the assay on UACC-257 melanoma it was 16.3 µM.
For the compound `COc1ccccc1-c1cc2c3c(nc4ccccc42)C(=O)c2cccnc2-c3n1`, the GI50 in the assay with 786-0 renal was 15.5 µM; with COLO 205 colon, 20.9 µM; with DU-145 prostate, 13.8 µM; in the assay with HS 578T breast it was 17.9 µM; in the assay with M14 melanoma it was 5.1 µM; in the assay on OVCAR-8 ovarian, 8.01 µM. Also, the GI50 is 16.7 µM with RXF 393 renal, 17.5 µM in the assay on SK-MEL-2 melanoma, 14.5 µM in the assay with SN12C renal and 7.22 µM with UACC-257 melanoma. Further, the TGI with 786-0 renal worked out at 29.7 µM; in the assay with COLO 205 colon it was 55.1 µM; in the assay on DU-145 prostate, 28.5 µM; in the assay with HS 578T breast, 37.9 µM; in the assay with M14 melanoma, 17.3 µM; with OVCAR-8 ovarian, 28.6 µM. In addition, the TGI with RXF 393 renal came out at 46.8 µM; in the assay on SK-MEL-2 melanoma, 47.8 µM; with SN12C renal it was 30.1 µM; in the assay on UACC-257 melanoma, 22.8 µM.
Consider `CCCC[C@@H]1NC(=O)[C@H](CCCCN)NC(=O)[C@H](CCCNC(=N)N)NC(=O)[C@H](CC(C)C)NC(=O)[C@@H](NC(=O)[C@H](Cc2cccc(Cl)c2)NC(=O)[C@@H]2CCCN2C(=O)[C@@H](NC(C)=O)C(C)C)CCSSC[C@@H](C(=O)N[C@@H](CCCCN)C(=O)N2CCC[C@H]2C(=O)N2CCC[C@H]2C(=O)N[C@@H](CCC(=O)O)C(N)=O)NC(=O)[C@H](Cc2ccccc2)NC(=O)[C@H](CO)NC(=O)[C@H](C)NC(=O)[C@@H]2CCCN2C1=O`, for which the GI50 in the assay with 786-0 renal, in the assay on COLO 205 colon, in the assay with DU-145 prostate, in the assay on HS 578T breast, in the assay with M14 melanoma and in the assay on OVCAR-8 ovarian was > 50 µM each time. The GI50 with RXF 393 renal, in the assay with SK-MEL-2 melanoma, in the assay on SN12C renal and in the assay with UACC-257 melanoma was > 50 µM in each case. Also, the TGI in the assay with 786-0 renal, in the assay with COLO 205 colon, in the assay with DU-145 prostate, in the assay with HS 578T breast, in the assay on M14 melanoma and with OVCAR-8 ovarian was > 50 µM each time. The TGI in the assay with RXF 393 renal, in the assay with SK-MEL-2 melanoma, in the assay with SN12C renal and in the assay on UACC-257 melanoma was > 50 µM each time.
As for `O=C1C=C(SCCO)C(=O)c2ccccc21`, the GI50 in the assay on 786-0 renal was 2.27 µM; in the assay on COLO 205 colon it was 2.11 µM; in the assay on DU-145 prostate it was 1.71 µM; in the assay on HS 578T breast, 2.21 µM; with M14 melanoma, 1.78 µM; with OVCAR-8 ovarian, 2.89 µM. The GI50 in the assay on RXF 393 renal is 1.64 µM; with SK-MEL-2 melanoma, 1.94 µM; with SN12C renal, 1.58 µM; in the assay on UACC-257 melanoma, 1.96 µM. The TGI in the assay on 786-0 renal is 6.46 µM; in the assay on COLO 205 colon, 4.29 µM; in the assay on DU-145 prostate, 3.09 µM; in the assay on HS 578T breast, 7.5 µM; in the assay on M14 melanoma, 3.36 µM; in the assay with OVCAR-8 ovarian, 10.8 µM. Besides, the TGI with RXF 393 renal came out at 3.01 µM; with SK-MEL-2 melanoma it was 3.91 µM; in the assay with SN12C renal, 3.04 µM; with UACC-257 melanoma it was 3.41 µM.
